Test results reported in patent US7112584B2, “Nonsteroidal antiinflammatory agents” (Schering AG, priority 2002, dated 2006).
Like-named read-outs stand apart in the source and are kept apart here.

Columns and labels:
[1] = system: secretion of cytokine IL-8 in human monocyte cell line THP-1; assay: inhibition of LPS-triggered IL-8 secretion in THP-1 cells (ELISA); format: cell-based; parameters: Inhibition of IL-8 Secretion Efficacy: concentration or dose not given beside the values; details: THP-1, LPS-triggered
Protocol: The concentration of the cytokines was determined in the supernatant with use of commercially available ELISA kits.
The potency of the inflammation inhibition is determined by the inhibition of the secretion of cytokine IL-8 in a cellular test. […] The concentration of the cytokine was determined in the supernatant by commercially available ELISA kits. In this connection, the compounds of formula I show a high to very high potency and action (>50%) in the inhibition (see Table 4). The potency of the racemates is considerably lower than that of the pure enantiomers.

[2] = biological target: T1, GR (IL-6 promoter) (Homo sapiens, UniProt P04150); assay: reporter gene test in HeLa cells, transrepression, IL-6 promoter-luciferase; details: for Emax: HeLa, read-out: Transrepression (TR)(IL-6-Promoter) Efficacy
T1 sequence (P04150 1-777): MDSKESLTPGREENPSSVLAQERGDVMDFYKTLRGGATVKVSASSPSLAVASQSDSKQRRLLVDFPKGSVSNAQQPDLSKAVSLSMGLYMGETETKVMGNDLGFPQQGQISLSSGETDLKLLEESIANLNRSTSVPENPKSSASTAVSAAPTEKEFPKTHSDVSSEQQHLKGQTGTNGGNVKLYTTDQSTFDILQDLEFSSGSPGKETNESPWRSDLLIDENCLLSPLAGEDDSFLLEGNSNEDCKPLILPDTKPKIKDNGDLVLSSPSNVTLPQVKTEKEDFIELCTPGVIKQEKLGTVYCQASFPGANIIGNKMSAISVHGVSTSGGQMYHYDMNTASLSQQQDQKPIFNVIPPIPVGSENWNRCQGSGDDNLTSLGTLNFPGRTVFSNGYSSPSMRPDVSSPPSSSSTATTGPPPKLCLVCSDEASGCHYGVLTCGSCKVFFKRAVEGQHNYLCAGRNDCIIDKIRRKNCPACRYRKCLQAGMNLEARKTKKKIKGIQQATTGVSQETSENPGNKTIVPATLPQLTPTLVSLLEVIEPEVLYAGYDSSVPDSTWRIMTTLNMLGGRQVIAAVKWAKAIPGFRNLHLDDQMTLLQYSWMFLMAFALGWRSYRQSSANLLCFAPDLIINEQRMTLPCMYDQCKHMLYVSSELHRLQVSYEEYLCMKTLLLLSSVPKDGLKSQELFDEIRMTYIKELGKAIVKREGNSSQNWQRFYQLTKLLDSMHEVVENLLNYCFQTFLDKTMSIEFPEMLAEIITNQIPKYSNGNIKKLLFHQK
Protocol: (§1) The MMTV promoter (transactivation) and the IL-6 promoter (transrepression) in each case were upstream to the gene that codes for the luciferase. By means of the photometric determination of the enzyme activity of the luciferase, it was possible to measure the activation of the transcription (MMTV-promoter-construct) or the inhibition of the transcription (IL-6-promoter-construct) by the GR.
(§2) This dissociation of the mechanisms of action was determined with the aid of the reporter gene test in stable transfixed human HeLa cells. To determine the transactivation induced by the GR, the MMTV promoter, which is set before a luciferase gene, is used. Via the photometric determination of the luciferase activity, it was possible to determine the transactivation activities of the GR after binding the test compounds. The inhibition of the transcription of the luciferase gene, induced by tetradecanoyl-phorbol acetate (TPA) under the control of the IL-6 promoter or the collagenase promoter (transpression) by the GR after binding the test substances, was also determined by the measurement of luciferase activity in HeLa cells.

[3] = biological target: T2, human GR (Homo sapiens, UniProt P04150); assay: glucocorticoid receptor (GR) binding test, cytosol of Sf9 cells, [3H]-dexamethasone; details: human GR from Sf9 cytosol
T2 construct: made in house; host or cells: Sf9 cells infected with recombinant baculovirus (cytosol preparation)
T2 sequence (P04150 1-777): T1 sequence (P04150 1-777)
Excerpt: The binding of substances to the glucocorticoid receptor (GR) is examined with the aid of a recombinantly produced receptor. Cytosol preparations of Sf9 cells, which had been infected with recombinant baculoviruses, which code for the GR, are used for the binding studies.

[4] = system: tyrosinamino transferase (TAT); assay: induction of tyrosinamino transferase (TAT) in liver homogenates; format: in vivo; details: mice, 8 hours after administration, vs untreated control
Excerpt: One of the most frequent undesirable effects of a glucocorticoid therapy is the so-called “steroid diabetes” [cf. Hatz, H. J., Glucocorticoide: Immunologische Grundlagen, Pharmakologie und Therapierichtlinien [Glucocorticoids: Immunological Bases, Pharmacology and Therapy Guidelines], Wissenschaftliche Verlagsgesellschaft mbH, Stuttgart, 1998]. The reason for this is the stimulation of the gluconeogenesis in the liver by induction of the enzymes that are responsible for this effect and by free amino acids, which develop from the degradation of proteins (catabolic action of glucocorticoids). A key enzyme of the catabolic metabolism in the liver is the tyrosinamino transferase (TAT). The activity of this enzyme can be determined photometrically from liver homogenates and represents a good yardstick of the undesirable metabolic actions of the glucocorticoids. To measure the TAT induction, the animals are sacrificed 8 hours after the test substances are administered, the livers are removed, and the TAT activity in the homogenate is measured.
As parameters for the side effects of the catabolic metabolism induced by steroids, the activity of the enzyme tyrosinamino transferase (TAT) was determined by photometry from liver homogenates. The activity represents a good yardstick for the undesirable catabolic actions of the glucocorticoids. To measure the TAT induction, the animals (mice and rats) are killed 8 hours after the test substance is administered, the liver is removed, and the TAT activity is measured in the homogenates.

[5] = system: croton oil-induced inflammation; assay: croton oil-induced ear inflammation, edema formation in mice; format: in vivo; details: systemic, two hours before croton oil, ear weight
Protocol: The antiinflammatory actions of the compounds of general formula I were tested in the animal experiment by tests in the croton oil-induced inflammation in rats and mice (J. Exp. Med. (1995), 182, 99–108). In this connection, croton oil in ethanolic solution was administered topically to the animals' ears. The test substances were also administered topically or systemically simultaneously with or two hours before the croton oil. After 16–24 hours, the ear weight was measured as a yardstick of the inflammatory edema, the peroxidase activity was measured as a yardstick of the invasions of granuloctyes, and the elastase activity was measured as a yardstick of the invasion of neutrophilic granuloctyes.
The antiinflammatory action of the compounds of general formula I were tested in an animal experiment in croton oil-induced inflammation in mice and in rats (J. Exp. Med. (1995), 182, 99–108). In this connection, croton oil in ethanolic solution was administered topically to the animals' ears. The test substances were systemically administered for two hours before the croton oil. After 16–24 hours, the ear weight was measured as a yardstick for the inflammatory edema.

[6] = biological target: T3, GR (collagenase promoter) (Homo sapiens, UniProt P04150); assay: reporter gene test in HeLa cells, transrepression, collagenase promoter-luciferase; format: cell-based; details: TPA-induced; for IC50: read-out: Transrepression (TR)(Collagenase Promoter) IC50
T3 construct: endogenous in cells; host or cells: HeLa cells stably transfected with promoter-luciferase reporters (MMTV, IL-6 or collagenase promoter)
T3 sequence (P04150 1-777): T1 sequence (P04150 1-777)

[7] = biological target: T4, GR (MMTV promoter) (Homo sapiens, UniProt P04150); assay: reporter gene test in HeLa cells, transactivation, MMTV promoter-luciferase; details: for TA:TR EC50:IC50: MMTV promoter EC50 : IL-6 promoter IC50
T4 sequence (P04150 1-777): T1 sequence (P04150 1-777)
Protocol: as §1, §2

[8] = HeLa cells, TPA-induced, luciferase
[9] = read-out: Transrepression (TR)(IL-6-Promoter) IC50, HeLa cells, TPA-induced, luciferase
[10] = read-out: Transactivating (TA)(MMTV-Promoter) EC50, HeLa cells, luciferase

Compound: Cc1noc(=O)c2ccc(NC(=O)C(O)(CC3(c4cccc5c4OCO5)CC3)C(F)(F)F)cc12 (single isomer, unassigned; (+)) [Example 4]
- IC50 [1]: 29 nM
- Inhibition of IL-8 Secretion Efficacy [1]: 62%
- Transrepression (TR)(IL-6-Promoter) Efficacy [2, 8]: 80%
- IC50 [2, 9]: 1.5 nM

Compound: Cc1noc(=O)c2ccc(NC(=O)C(O)(CC3(c4cccc5c4OCC5)CCC3)C(F)(F)F)cc12 (single isomer, unassigned) [Example 15]
- IC50 [1]: 7.5 nM
- Inhibition of IL-8 Secretion Efficacy [1]: 74%
- Transrepression (TR)(IL-6-Promoter) Efficacy [2, 8]: 74%
- IC50 [2, 9]: 1.5 nM

Compound: COc1c(F)cccc1C1(CC(O)(C(=O)Nc2ccc3c(=O)onc(C)c3c2)C(F)(F)F)CCC1 (racemic) [Example 31]
- IC50 [3]: 14 nM
- IC50 [2]: 5.4 nM
- Emax [2]: 67%

Compound: Cc1noc(=O)c2ccc(NC(=O)C(O)(CC(C)(C)c3cc(Br)ccc3O)C(F)(F)F)cc12 (single isomer, unassigned; (+)) [Example 7, (+)-6-[4-(5-Bromo-2-hydroxyphenyl)-2-hydroxy-4-methyl-2-(trifluoromethyl)valeroylamino]-4-methyl-2,3-benzoxazin-1-one]
- Induction Factor for TAT with 3 mg/kg [4]: 1.2
- Induction Factor for TAT with 30 mg/kg [4]: 2.4
- Edema Inhibition with 3 mg/kg [5]: 22%
- Edema Inhibition with 30 mg/kg [5]: 75%

Compound: Cc1noc(=O)c2ccc(NC(=O)C(O)(CC3(c4cccc5c4OCC5)CC3)C(F)(F)F)cc12 (racemic) [Example 12]
- IC50 [3]: 0.85 nM
- IC50 ([1]; Homo sapiens): 42 nM
- Inhibition of IL-8 Secretion Efficacy [1]: 52%

Compound: Cc1noc(=O)c2ccc(NC(=O)C(O)(CC3(c4cccc5c4OCC5)CCC3)C(F)(F)F)cc12 (racemic) [Example 14]
- IC50 [1]: 71 nM
- Inhibition of IL-8 Secretion Efficacy [1]: 61%
- Transrepression (TR)(IL-6-Promoter) Efficacy [2, 8]: 85%
- IC50 [2, 9]: 4.2 nM

Compound: (+)-6-[3-(Benzo[1,3]dioxol-4-yl)-cyclobutyl-2-hydroxy-2-trifluoromethyl-propionyl-amino]-4-methyl-2,3-benzoxazin-1-one [Example 6]
- Transrepression (TR)(Collagenase Promoter) Efficacy [6]: 95%
- IC50 [6]: 2.6 nM
- Transrepression (TR)(IL-6-Promoter) Efficacy [2, 8]: 77%
- IC50 [2, 9]: 1.2 nM

Compound: C[C@]12C=CC(=O)C=C1CC[C@@H]1[C@@H]2[C@@H](O)C[C@@]2(C)[C@H]1CC[C@]2(O)C(=O)CO [Prednisolone, reference compound]
- Induction Factor for TAT with 3 mg/kg [4]: 2.6
- Induction Factor for TAT with 30 mg/kg [4]: 8.0
- Edema Inhibition with 3 mg/kg [5]: 35%
- Edema Inhibition with 30 mg/kg [5]: 84%
- Transrepression (TR)(Collagenase Promoter) Efficacy [6]: 96%
- IC50 ([1]; Homo sapiens): 18 nM
- Inhibition of IL-8 Secretion Efficacy [1]: 92%
- Emax [2]: 94%

Compound: C[C@@H]1C[C@H]2[C@@H]3CCC4=CC(=O)C=C[C@]4(C)[C@@]3(F)[C@@H](O)C[C@]2(C)[C@@]1(O)C(=O)CO [Dexamethasone, reference compound]
- Transactivating (TA)(MMTV-Promoter) Efficacy ([7]; HeLa cells, luciferase): 100%
- Transrepression (TR)(Collagenase Promoter) Efficacy [6]: 100%
- Transrepression (TR)(IL-6-Promoter) Efficacy [2, 8]: 100%

Compound: COc1c(F)cccc1C1(CC(O)(C(=O)Nc2ccc3c(=O)onc(C)c3c2)C(F)(F)F)CCC1 (single isomer, unassigned) [Example 32]
- IC50 [3]: 3 nM
- IC50 [2]: 2.2 nM
- Emax [2]: 76%

Compound: CCc1noc(=O)c2ccc(NC(=O)C(O)(CC3(c4cccc5c4OCC5)CCC3)C(F)(F)F)cc12 (single isomer, unassigned) [Example 17]
- Transactivating (TA)(MMTV-Promoter) Efficacy ([7]; HeLa cells, luciferase): 50%
- TA:TR EC50:IC50 [7]: 8.7
- EC50 [7, 10]: 40 nM
- Transrepression (TR)(IL-6-Promoter) Efficacy [2, 8]: 73%
- IC50 [2, 9]: 4.6 nM

Compound: Cc1noc(=O)c2ccc(NC(=O)C(O)(CC3(c4cccc5c4OCO5)CC3)C(F)(F)F)cc12 (racemic) [Example 3]
- IC50 ([1]; Homo sapiens): 39 nM
- Inhibition of IL-8 Secretion Efficacy [1]: 53%
- IC50 [2]: 5.9 nM
- Emax [2]: 66%

Compound: CCc1noc(=O)c2ccc(NC(=O)C(O)(CC(C)(C)c3cccc4ccoc34)C(F)(F)F)cc12 (single isomer, unassigned; (+)) [Example 8, (+)-4-Ethyl-6-[4-(7-benzofuranyl)-2-hydroxy-4-methyl-2-trifluoromethylvaleroylamino]-2,3-benzoxazin-1-one]
- Edema Inhibition with 3 mg/kg [5]: 33%
- Edema Inhibition with 30 mg/kg [5]: 52%
- EC50 [7]: 50 nM
- Transactivating (TA)(MMTV-Promoter) Efficacy ([7]; HeLa cells, luciferase): 25%
- TA:TR EC50:IC50 [7]: 17.8
- IC50 [2]: 2.8 nM
- Emax [2]: 67%

Compound: Cc1noc(=O)c2ccc(NC(=O)C(O)(CC(C)(C)c3cccc4ccoc34)C(F)(F)F)cc12 (single isomer, unassigned) [Example 23]
- Induction Factor for TAT with 3 mg/kg [4]: 1.1
- Induction Factor for TAT with 30 mg/kg [4]: 1.0
- Transactivating (TA)(MMTV-Promoter) Efficacy ([7]; HeLa cells, luciferase): 76%
- TA:TR EC50:IC50 [7]: 6.2
- EC50 [7, 10]: 10 nM
- Transrepression (TR)(Collagenase Promoter) Efficacy [6]: 78%
- IC50 [6]: 4.9 nM
- Transrepression (TR)(IL-6-Promoter) Efficacy [2, 8]: 78%
- IC50 [2, 9]: 1.6 nM

Compound: Cc1noc(=O)c2ccc(NC(=O)C(O)(CC(C)(C)c3cccc4c3OCO4)C(F)(F)F)cc12 (racemic) [Example 1, (±)-6-[4-(Benzo[1,3]dioxol-4-yl)-2-hydroxy-4-methyl-2-trifluoromethyl-valeroyl-amino]-4-methyl-2,3-benzoxazin-1-one]
- IC50 [3]: 1.5 nM
- IC50 ([1]; Homo sapiens): 76 nM
- Inhibition of IL-8 Secretion Efficacy [1]: 51%
- IC50 [2]: 2 nM
- Emax [2]: 84%

Compound: Cc1noc(=O)c2ccc(NC(=O)C(O)(CC3(c4cccc(F)c4O)CCC3)C(F)(F)F)cc12 (single isomer, unassigned) [Example 33]
- EC50 [7]: 49 nM
- Transactivating (TA)(MMTV-Promoter) Efficacy ([7]; HeLa cells, luciferase): 76%
- TA:TR EC50:IC50 [7]: 22.3
- IC50 [2]: 2.2 nM
- Emax [2]: 80%

Compound: Cc1noc(=O)c2ccc(NC(=O)C(O)(CC(C)(C)c3cc(F)cc4c3OCO4)C(F)(F)F)cc12 (single isomer, unassigned) [Example 19]
- IC50 [2]: 3.8 nM
- Emax [2]: 91%
